Patent US20100210597A1, “C21-Deoxy Ansamycin Derivatives as Antitumor Agents” (priority 2007, published 2010)

Columns and labels:
[1] = Whole blood cleavage assay, human blood; assay type: in vitro ADME; details: 10 uM, 37° C., two hours
Protocol: Human whole blood (single donor, batch HBE4534) was obtained from First Link UK Ltd. Mouse whole blood (pool of 10, batch 07-2470) was obtained from Harlan UK. Blood was collected into tubes containing EDTA as anticoagulant and shipped on ice. Blood was used on the day of arrival. In the case of human whole blood incubations were undertaken both on the fresh blood and also after freezing the blood followed by thawing. Control compounds were Lidocaine, Bisacodyl and Simvastatin.
All test compounds were incubated at 10 uM in whole blood at 37° C. At selected time points, 0.1 ml of blood was mixed with 0.3 ml of acetonitrile and vortexed immediately. All samples were centrifuged and supernatant were diluted with same volume of deionized water. […] For 20 sample analysis, mass spectrometry monitored both 17 and 20. […]
The Half life, for the disappearance of 20, was determined according to the relationship: […]
Blood cleavage assays were run to confirm that 20 acts as a prodrug and cleaves to produce compound 17 when incubated with human and mouse blood, as described in the general methods. The compound was incubated in human or mouse blood with samples removed over two hours, and analysed by LC MS/MS for presence of 20 and 17 (see FIG. 6). […] Due to the differing responses of 17 and 20 on mass spectrometry it was not possible to quantify the extent of conversion of 20 to 17.

[2] = test system: CNXF 498NL; assay: Monolayer proliferation assay (modified propidium iodide), CNXF 498NL; assay type: cell-based, human; details: average of 2 experiments
Protocol: (§1) In vitro evaluation of compounds for anticancer activity in a panel of human tumour cell lines in a monolayer proliferation assay was carried out at the Oncotest Testing Facility, Institute for Experimental Oncology, Oncotest GmbH, Freiburg.
(§2) The Oncotest cell lines are established from human tumor xenografts as described by Roth et al., (1999). The origin of the donor xenografts is described by Fiebig et al., (1999). Other cell lines are either obtained from the NCl (DU145, MCF-7) or purchased from DSMZ, Braunschweig, Germany.
(§3) All cell lines, unless otherwise specified, are grown at 37° C. in a humidified atmosphere (95% air, 5% CO2) in a ‘ready-mix’ medium containing RPMI 1640 medium, 10% fetal calf serum, and 0.1 mg/mL gentamicin (PAA, Cölbe, Germany).
(§4) A modified propidium iodide assay was used to assess the effects of the test compound(s) on the growth of six human tumour cell lines (Dengler et al., (1995)).
Briefly, cells are harvested from exponential phase cultures by trypsinization, counted and plated in 96 well flat-bottomed microtitre plates at a cell density dependent on the cell line (5-10.000 viable cells/well). After 24 h recovery to allow the cells to resume exponential growth, 0.010 mL of culture medium (6 control wells per plate) or culture medium containing macbecin were added to the wells. Each concentration is plated in triplicate. […] Following 4 days of continuous exposure, cell culture medium with or without test compound was replaced by 0.2 mL of an aqueous propidium iodide (P1) solution (7 mg/L). To measure the proportion of living cells, cells were permeabilized by freezing the plates. After thawing the plates, fluorescence was measured using the Cytofluor 4000 microplate reader (excitation 530 nm, emission 620 nm), giving a direct relationship to the total number of viable cells.
(§5) Growth inhibition is expressed as treated/control×100 (% T/C).
(§6) In vitro evaluation of the test compound, 20, for anticancer activity in a panel of human tumour cell lines in a monolayer proliferation assay was carried out as described in the general methods using a modified propidium iodide assay.

[3] = test system: CXF HT29; assay: Monolayer proliferation assay (modified propidium iodide), CXF HT29; assay type: cell-based, human; details: average of 2 experiments
Protocol: as §1, §2, §3, §4
(§7) Briefly, cells are harvested from exponential phase cultures by trypsinization, counted and plated in 96 well flat-bottomed microtitre plates at a cell density dependent on the cell line (5-10.000 viable cells/well). After 24 h recovery to allow the cells to resume exponential growth, 0.010 mL of culture medium (6 control wells per plate) or culture medium containing macbecin were added to the wells. Each concentration is plated in triplicate. Compounds were applied in two concentrations (0.001 mM and 0.01 mM). Following 4 days of continuous exposure, cell culture medium with or without test compound was replaced by 0.2 mL of an aqueous propidium iodide (P1) solution (7 mg/L). To measure the proportion of living cells, cells were permeabilized by freezing the plates. After thawing the plates, fluorescence was measured using the Cytofluor 4000 microplate reader (excitation 530 nm, emission 620 nm), giving a direct relationship to the total number of viable cells.
as §5, §6

[4] = test system: MCF-7; assay: Monolayer proliferation assay (modified propidium iodide), MCF-7; assay type: cell-based, human; details: average of 2 experiments
Protocol: as §1, §2, §3, §4, §7, §5, §6

[5] = test system: DU145; assay: Monolayer proliferation assay (modified propidium iodide), DU145; assay type: cell-based, human; details: average of 2 experiments
Protocol: as §1, §2, §3, §4, §7, §5, §6

[6] = test system: panel of human tumour cell lines; assay: Monolayer proliferation assay, mean across cell line panel; assay type: cell-based; details: geometric mean of all replicates across six cell lines
Protocol: as §1, §2, §3, §4
Briefly, cells are harvested from exponential phase cultures by trypsinization, counted and plated in 96 well flat-bottomed microtitre plates at a cell density dependent on the cell line (5-10.000 viable cells/well). […] After thawing the plates, fluorescence was measured using the Cytofluor 4000 microplate reader (excitation 530 nm, emission 620 nm), giving a direct relationship to the total number of viable cells.
Growth inhibition is expressed as treated/control×100 (% T/C). […]

In the case of CO[C@H]1C[C@H](C)Cc2cc(cc(OP(=O)(O)O)c2)NC(=O)/C(C)=C/CC[C@H](C)[C@@H](OC(N)=O)/C(C)=C/[C@H](C)[C@H]1O [Compound 20, 4,5-dihydro-11-O-demethyl-15-demethoxy-18,21-didehydro-21-deoxomacbecin-18-phosphate], the conversion in blood [1] is reported as “act as a prodrug and release 17”, the “Test/Control (%) at drug concentration (μg/mL)” value (from here on “Test/Control (%)”) ([2]; 0.01 μg/mL) is reported as 99% and the “Test/Control (%)” value ([2]; 0.1 μg/mL) is reported as 77%. For the same compound, the “Test/Control (%)” value ([2]; 1 μg/mL) was 15%, the “Test/Control (%)” value ([2]; 10 μg/mL) was 16% and the “Test/Control (%)” value ([2]; 100 μg/mL) was 12%. For the same compound, the “Test/Control (%)” value ([3]; CXF HT29, 0.01 μg/mL) was 112%, the “Test/Control (%)” value ([3]; CXF HT29, 0.1 μg/mL) was 43% and the “Test/Control (%)” value ([3]; CXF HT29, 1 μg/mL) was 7%. For the same compound, the “Test/Control (%)” value ([3]; CXF HT29, 10 μg/mL) was 7%, the “Test/Control (%)” value ([3]; CXF HT29, 100 μg/mL) was 5% and the “Test/Control (%)” value ([4]; MCF-7, 0.01 μg/mL) was 98%. For the same compound, the “Test/Control (%)” value ([4]; MCF-7, 0.1 μg/mL) was 38%, the “Test/Control (%)” value ([4]; MCF-7, 1 μg/mL) was 14% and the “Test/Control (%)” value ([4]; MCF-7, 10 μg/mL) was 13%. The “Test/Control (%)” value ([4]; MCF-7, 100 μg/mL) was 9%, the “Test/Control (%)” value ([5]; DU145, 0.01 μg/mL) was 99% and the “Test/Control (%)” value ([5]; DU145, 0.1 μg/mL) was 53%. For the same compound, the “Test/Control (%)” value ([5]; DU145, 1 μg/mL) was 8%, the “Test/Control (%)” value ([5]; DU145, 10 μg/mL) was 9% and the “Test/Control (%)” value ([5]; DU145, 100 μg/mL) was 3%. For the same compound, the “average IC70 value across the cell-line panel” value [6] was 0.344 µg/mL.
